Literature values, collected in patent EP0176772A1, “Process for sustaining the release of vitamins C and E” (RODISMA Pharmazeutische Produkte GmbH, priority 1984, dated 1986).
Where two headings read alike, the source gives them in different places.

Key:
[1] = not given; remark: listed apart in the source

## Cc1c(C)c2c(c(C)c1O)CCC(C)(CCCC(C)CCCC(C)CCCC(C)C)O2 [D-alpha-Tocopherol]
Orale Verabreichung von 600 mg an eine Versuchsperson (Hashim und Schuttringer)
  maximale Plasmaspiegel, time of: ~7 Stunden
Orale Verabreichung von (Hashim und Schuttringer)
  Maximum der Plasma-Tocopherol-Konzentration, time of: 7 Stunden

## O=C1O[C@H]([C@@H](O)CO)C(O)=C1O [Vitamin C, Ascorbinsäure]
[1]; Einzeldosen bis 180 mg, dosisproportional (Kübler und Gehler)
  Resorption: ~70%
[1]; Einzeldosis von 1 g, 3-Kompartiment-Modell (Hornig und Moser)
  resorbiert: 75%
[1]; orale Ascorbinsäurebelastung mit 12 g
  resorbiert: 16%

## Vitamin E
human, in vivo, po
  Maximum (plasma vitamin E), time of: 7 Stunden
